For experiment [1], the system named is rats injected icv with STZ (episodic memory). Kind of experiment: Object recognition test after icv STZ. Format: in vivo, Sprague-Dawley rats. Conditions: for Effect on the deficit in episodic memory: four weeks after icv STZ. On the procedure: Male Sprague-Dawley rats (63) weighing 320-340 g, aged 4 months, were anesthetized by an intraperitoneal injection of Equithesin 0.3 ml/kg. STZ (0.5 mg) dissolved in 2 μl artificial cerebrospinal fluid (CSF) was injected into each lateral ventricle of 45 rats. The stereotaxic co-ordinates for icv injection were: 0.9 mm posterior, 1.8 mm lateral and 3.8 mm ventral from the bregma level. Control rats (18) received a bilateral injection of 2 μl artificial CSF. […] The remaining 20 rats received 1 ml/kg water. The rats were housed two per cage with free access to food and water until the behavioral, enzymatic and cytochemical measurements were completed.
Episodic memory in the object recognition test was still intact 2 but not 4 weeks after a single icv STZ injection (Table 3). Therefore, rats that were treated with ladostigil or water were tested for object and place recognition 4 weeks after icv injection of STZ or CSF. The object recognition test measured non-spatial working memory with characteristics of episodic memory that is primarily affected in senile dementia (Bartolini et al., Aniracetam restores object recognition impaired by age, scopolamine, and nucleus basalis lesions, Pharmacol. Biochem. Behav. (1996) 53:277-83). The test depended on intact cortical and hippocampal function (Winters et al., Double dissociation between the effects of peri-postrhinal cortex and hippocampal lesions on tests of object recognition and spatial memory: heterogeneity of function within the temporal lobe, J. Neuroscience (2004) 24:5901-8), while place recognition, another manifestation of spatial memory, was dependent on intact hippocampal function. The experiments were carried out as previously described in Mumby et al., Hippocampal damage and exploratory preferences in rats: memory for objects, places, and contexts, Learning Memory (2002) 9:49-57, in a box made of dark Perspex (60×60 cm and 50 cm high), covered with a dark Perspex lid. In order to increase their interest in the objects, rats were familiarized with the test arena by placing them in it for 5 min on each of 3 successive days and the object recognition test performed on the 4th day. Two identical objects were placed in the arena and the time taken by the rats to explore each object during a period of 3 min was recorded. One hour later, the objects were replaced by one that was identical to the two used in the first test and a second one that was different from them and the time taken to explore each of them was again recorded. The following day, the place recognition test was carried out with two identical objects as described above but different from those used previously. One hour later, the one of the two objects was moved to another position in the arena as described in Mumby et al., supra.
Group means of 3 measures in the object and place recognition tests, duration of exploration in first and second phases and discrimination index were submitted to one way ANOVA. Mean daily escape latencies for trial 1 and trial 2 in the MWM in each group were analyzed by repeated measures ANOVA for DAY and GROUP followed by Duncan's post hoc test where appropriate. Histological data were analyzed by univariate ANOVA followed by Duncan's post hoc test. All values represent means±SEM.

Experiment [2] has as its system NT immunoreactivity in astrocytes. Kind of experiment: Example 2: astrocyte activation and NT immunoreactivity in hippocampus and regions bordering lateral ventricles after icv STZ. Type of experiment: in vivo, Sprague-Dawley rats. Conditions: 1 mg/kg/day orally, one week after icv STZ. On the procedure:
Male Sprague-Dawley rats (63) weighing 320-340 g, aged 4 months, were anesthetized by an intraperitoneal injection of Equithesin 0.3 ml/kg. STZ (0.5 mg) dissolved in 2 μl artificial cerebrospinal fluid (CSF) was injected into each lateral ventricle of 45 rats. The stereotaxic co-ordinates for icv injection were: 0.9 mm posterior, 1.8 mm lateral and 3.8 mm ventral from the bregma level. Control rats (18) received a bilateral injection of 2 μl artificial CSF. STZ-injected rats (25) were given ladostigil (1 mg/kg of the hemitartrate salt/day) orally in a volume of (1 ml/kg) from one week before, until 1 or 8 weeks after icv STZ. The remaining 20 rats received 1 ml/kg water. The rats were housed two per cage with free access to food and water until the behavioral, enzymatic and cytochemical measurements were completed. […]
Nitrotyrosine, (NT) a marker of nitrative/oxidative stress, was stained with rabbit anti-nitrotyrosine from Upstate (Lake Placid, N.Y., USA), diluted 1:100 followed by the secondary donkey anti-rabbit conjugated with horseradish peroxidase from Chemicon (Temecula, Calif., USA), was diluted 1:200. […] Images were obtained by bright field microscopy and quantitative assessments of appropriate markers were made using AnalySIS software. […]
For each quantitative analysis of NT-immunoreactive astrocytes, 3 sections were sampled from each rat. […]

For the compound `C#CCN[C@@H]1CCc2ccc(OC(=O)N(C)CC)cc21` [ladostigil, R(+)-6-(N-methyl,N-ethyl-carbamoyloxy)-N′-propargyl-1-aminoindan], the “Deficit in episodic memory two days after dose” value in experiment [1] (17 mg/kg single dose, two days later when ChE was no longer inhibited) is reported as “returned two days later”. In addition, the “Discrimination index, Object” value in experiment [1] (STZ (4 weeks) + 17 mg/kg acute) is on record as 0.348 ± 0.112; in experiment [1] (STZ (4 weeks) + 17 mg/kg acute, two days later) it was −0.112 ± 0.08; in experiment [1] (STZ (4 weeks) + ladostigil 1 mg/kg acute), 0.010 ± 0.08; in experiment [1] (STZ (4 weeks) + ladostigil 1 mg/kg chronic, mean ± s.e.m.), 0.238 ± 0.05. Further, the “Discrimination in object recognition test” value in experiment [1] (icv STZ with chronic ladostigil, significantly >0, P<0.05) is on record as “significant discrimination index”. Further, the “Effect on the deficit in episodic memory” value is “the memory deficit was abolished” in experiment [1] (single dose 17 mg/kg) and “no effect” in experiment [1] (single dose of 1 mg/kg). Also, the “Astrocyte activation and NT immunoreactivity in CA1, corpus callosum, medial and lateral septum” value in experiment [2] was “reduced both astrocyte activation and NT immunoreactivity in these brain regions to the level of that seen in CSF-injected controls”.

(Values after US8420696B2, “Use of low-dose ladostigil for neuroprotection” (priority 2005, dated 2013).)
